In this assay the target is T1, recombinant human NSD2 (Homo sapiens, UniProt O96028).
T1 construct: (amino acids 2-end); His tag (N); host or cells: Sf9 insect cells
T1 sequence (O96028 2-1365 limits assumed): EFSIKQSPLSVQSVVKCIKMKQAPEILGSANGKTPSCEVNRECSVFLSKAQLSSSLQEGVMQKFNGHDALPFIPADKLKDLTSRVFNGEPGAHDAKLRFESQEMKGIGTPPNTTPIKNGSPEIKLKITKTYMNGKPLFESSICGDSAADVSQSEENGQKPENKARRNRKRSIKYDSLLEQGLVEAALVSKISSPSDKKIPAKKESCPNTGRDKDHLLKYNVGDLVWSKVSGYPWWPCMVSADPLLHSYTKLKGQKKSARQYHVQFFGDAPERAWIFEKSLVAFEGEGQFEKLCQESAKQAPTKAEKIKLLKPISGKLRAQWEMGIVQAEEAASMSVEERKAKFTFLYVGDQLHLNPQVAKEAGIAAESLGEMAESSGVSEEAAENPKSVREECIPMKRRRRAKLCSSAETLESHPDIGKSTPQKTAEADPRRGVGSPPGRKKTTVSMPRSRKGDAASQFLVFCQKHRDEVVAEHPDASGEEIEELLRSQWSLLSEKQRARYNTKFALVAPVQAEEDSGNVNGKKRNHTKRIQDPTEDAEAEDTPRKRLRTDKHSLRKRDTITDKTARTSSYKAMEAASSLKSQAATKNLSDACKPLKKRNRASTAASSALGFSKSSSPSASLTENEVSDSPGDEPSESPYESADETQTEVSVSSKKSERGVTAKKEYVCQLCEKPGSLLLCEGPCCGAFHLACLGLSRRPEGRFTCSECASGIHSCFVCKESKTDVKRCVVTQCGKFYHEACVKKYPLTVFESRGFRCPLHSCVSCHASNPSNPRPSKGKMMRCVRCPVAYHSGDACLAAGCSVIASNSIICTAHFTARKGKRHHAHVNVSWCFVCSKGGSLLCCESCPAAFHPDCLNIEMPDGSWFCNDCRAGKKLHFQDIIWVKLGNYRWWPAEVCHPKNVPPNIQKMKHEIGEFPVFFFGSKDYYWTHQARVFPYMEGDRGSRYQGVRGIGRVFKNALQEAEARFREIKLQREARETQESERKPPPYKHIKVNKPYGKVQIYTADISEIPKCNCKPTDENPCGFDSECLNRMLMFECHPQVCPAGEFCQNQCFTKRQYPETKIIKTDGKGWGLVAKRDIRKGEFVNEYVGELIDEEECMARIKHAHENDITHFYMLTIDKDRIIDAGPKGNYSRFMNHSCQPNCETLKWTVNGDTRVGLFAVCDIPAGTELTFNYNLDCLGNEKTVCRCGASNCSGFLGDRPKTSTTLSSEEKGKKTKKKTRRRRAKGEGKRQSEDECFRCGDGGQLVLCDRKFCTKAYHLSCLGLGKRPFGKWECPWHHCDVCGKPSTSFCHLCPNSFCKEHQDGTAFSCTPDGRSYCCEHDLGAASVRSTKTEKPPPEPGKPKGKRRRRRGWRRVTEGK
Nature of the assay: NSD2 inhibition assay (3H-SAM histone methyltransferase, oligonucleosome substrate). The class given is biochemical. Particulars: recombinant human NSD2 (aa 2-end, His tag) 2 nM, chicken oligonucleosomes 0.05 mg/ml, 3H-SAM 1 μM, 1 hour at 30° C. The procedure: The NSDS2 inhibitory activity of a compound can be evaluated using a NSD2 inhibition assay, such as the NSD2 inhibition assay described herein below.
A reaction mixture can be prepared by adding oligonucleosomes from Chicken (0.05 mg/ml) to freshly prepared reaction buffer containing 50 mM Tris-HCl (pH 8.5), 50 mM NaCl, 5 mM MgCl2, 0.01% Brij35, 1 mM DTT, and 1% DMSO followed by the addition of recombinant human NSD2, (amino acids 2-end) with N-terminal His tag (2 nM; GenBank Accession No. NM_001042424; MW=155.5 kDa; expressed in Sf9 insect cells) and gentle mixing. The test compound is diluted in DMSO, added to the reaction mixture in nanoliter amounts (using, e.g., Acoustic Technology (Echo 550, LabCyte Inc. Sunnyvale, CA)) and incubated for 20 minutes at room temperature. The reaction may be initiated by addition of S-Adenosyl-L-[methyl-3H]methionine (3H-SAM; 1 μM), and the mixture is then incubated for 1 hour at 30° C. The reaction mixture can be delivered to filter paper and the methylated substrate quantified by scintillation counting. Data analysis may be performed using Excel and GraphPad Prism software for IC50 curve fits. For additional information on the histone methyltransferase assay, see, for example, Horiuchi K Y, et al., “Assay Development for Histone Methyltransferases,” Assay Drug Dev Technol. 2013 May; 11(4):227-36.

Each structure is given as a SMILES string.

`[2H]C([2H])([2H])Oc1cc(F)c(-c2cc(Cn3cnc4c(N)ncnc43)c(N3CCC[C@](N)([C@H](O)C(F)F)C3)cn2)cc1F`: the IC50 was below 10 nM.

The values are drawn from patent US20250171445A1, “DEUTERIUM-ENRICHED PIPERIDINYL-METHYL-PURINE AMINE SALTS, CRYSTALLINE FORMS, AND THEIR USE IN TREATING MEDICAL DISEASES AND CONDITIONS” (K36 Therapeutics, Inc., priority 2023, published 2025).
